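A five-concentration, 48-hour dose response in 96-well plates underlies each endpoint, interpolated linearly between surrounding concentrations. Abbreviation: GI50, concentration required for 50% inhibition of growth.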 Active and inactive are the calls of the source. No stated cut-off is given here; in the data, active = GI50 up to about 1.1 µM and inactive = higher.
Tests used:
Test in all cases: DTP human tumour cell line panel, 48 h
[1] = test system: 786-0
[2] = test system: Malme-3M
[3] = test system: CAKI-1
[4] = test system: M14
[5] = test system: OVCAR-4
[6] = test system: SF-539
[7] = test system: HL-60
[8] = test system: ACHN
[9] = test system: CCRF-CEM
[10] = test system: TK-10
[11] = test system: SF-295
[12] = test system: LOX IMVI
[13] = test system: SNB-75
[14] = test system: SR
[15] = test system: HT-29
[16] = test system: UO-31
[17] = test system: SK-MEL-2
[18] = test system: UACC-62
[19] = test system: SK-MEL-5
[20] = test system: HCC 2998

Measured: GI50

O=C(NS(=O)(=O)OCC(Cl)(Cl)Cl)SCCC(F)(F)C(F)(F)C(F)(F)C(F)(F)C(F)(F)C(F)(F)F
inactive: [1] 35.6 µM | [2] 17.9 µM | [3] 30.5 µM | [4] 23.1 µM | [5] 16.4 µM | [6] 16.8 µM | [7] 23.1 µM | [8] 40.9 µM | [9] 22.8 µM | [10] 29.5 µM | [11] 20.2 µM | [12] 22.5 µM | [13] 23.1 µM | [14] 32.7 µM | [15] 18.8 µM | [16] 38 µM | [17] 25.3 µM | [18] 18.8 µM

Cc1cc(O)nc(NNC(C#N)c2ccc(O)cc2)n1 (centres undefined)
inactive: [19] > 100 µM | [1] > 100 µM | [2] > 100 µM | [3] > 100 µM | [4] > 100 µM | [5] > 100 µM | [6] > 100 µM | [7] > 100 µM | [8] > 100 µM | [9] > 100 µM | [10] > 100 µM | [11] > 100 µM | [12] > 100 µM | [13] > 100 µM | [14] > 100 µM | [15] > 100 µM | [16] > 100 µM | [17] > 100 µM | [18] > 100 µM

CC(=O)n1nnc2ccc([N+](=O)[O-])cc21
inactive: [19] > 100 µM | [1] > 100 µM | [2] > 100 µM | [3] > 100 µM | [4] > 100 µM | [5] > 100 µM | [6] > 100 µM | [7] > 100 µM | [8] > 100 µM | [9] > 100 µM | [10] > 100 µM | [11] > 100 µM | [12] > 100 µM | [13] > 100 µM | [14] > 100 µM | [15] > 100 µM | [16] > 100 µM | [17] > 100 µM | [18] > 100 µM

C#C[C@H](CCCC)OC(=O)N[C@H](C)c1ccccc1
inactive: [19] 21.7 µM | [1] 49.1 µM | [3] 52.6 µM | [4] 41.8 µM | [5] 42 µM | [7] 17.5 µM | [8] 41.9 µM | [9] 34.6 µM | [10] 37.8 µM | [11] 75 µM | [12] 33.2 µM | [13] 41.2 µM | [14] 26.9 µM | [15] 40.2 µM | [16] 26.9 µM | [17] 36.1 µM | [18] 80.9 µM

COC(=O)/C=c1\s/c(=C\C(=O)OC)c2ccccc12
inactive: [19] > 100 µM | [1] > 100 µM | [2] > 100 µM | [3] > 100 µM | [4] > 100 µM | [5] > 100 µM | [6] > 100 µM | [7] > 100 µM | [8] > 100 µM | [9] > 100 µM | [10] > 100 µM | [11] > 100 µM | [12] > 100 µM | [20] > 100 µM | [13] 27.9 µM | [15] > 100 µM | [16] 89.1 µM | [17] > 100 µM | [18] > 100 µM

CC(=O)C1CC(C)=CCC12C(=O)Nc1ccccc12 (centres undefined)
inactive: [19] > 100 µM | [1] > 100 µM | [2] > 100 µM | [3] > 100 µM | [4] > 100 µM | [5] > 100 µM | [6] > 100 µM | [7] > 100 µM | [8] > 100 µM | [9] > 100 µM | [10] > 100 µM | [11] > 100 µM | [12] > 100 µM | [20] > 100 µM | [13] > 100 µM | [15] > 100 µM | [17] > 100 µM | [18] 68.1 µM

C=C1N(C)c2ccc(S(=O)(=O)c3ccc4c(c3)C(C)(C)C(=C)N4C)cc2C1(C)C
inactive: [19] 17.5 µM | [1] 58.5 µM | [2] 19.5 µM | [3] 62.4 µM | [4] 31.2 µM | [5] 35.3 µM | [6] > 100 µM | [7] 27.3 µM | [8] 77.8 µM | [9] 50.1 µM | [10] 36.1 µM | [11] 22.8 µM | [20] 34.5 µM | [13] 16.3 µM | [15] 47 µM | [16] 51.6 µM | [17] 41.3 µM | [18] 29.1 µM

NC(=O)c1oc([N+](=O)[O-])c(-c2ccccc2)c1-c1ccccc1
inactive: [1] 25.1 µM | [2] 3.49 µM | [3] 18.4 µM | [4] 17.7 µM | [5] 12.2 µM | [6] 18.5 µM | [7] 25.1 µM | [8] 26.2 µM | [9] 19.1 µM | [10] 28.6 µM | [11] 15.8 µM | [12] 14.1 µM | [13] 65.9 µM | [14] 6.27 µM | [15] 27.2 µM | [16] 16.3 µM | [17] 15.6 µM | [18] 8.65 µM
active: [19] 0.597 µM

CCC1C(=O)C[C@H]2[C@@H]3C(O)CC4=CC(=O)CC[C@]4(C)[C@H]3CC[C@]12C (some centres undefined)
inactive: [19] > 50 µM | [1] > 50 µM | [2] 25.8 µM | [3] > 50 µM | [4] > 50 µM | [5] > 50 µM | [6] > 50 µM | [7] > 50 µM | [8] > 50 µM | [9] > 50 µM | [10] > 50 µM | [11] > 50 µM | [12] > 50 µM | [20] > 50 µM | [13] > 50 µM | [15] > 50 µM | [16] > 50 µM | [17] > 50 µM | [18] > 50 µM

Nc1nc(Cl)cc(NCC2(CO)CCC(OCc3ccccc3)C2)n1 (centres undefined)
inactive: [19] 2.82 µM | [1] 35.2 µM | [2] 20.8 µM | [3] 8.09 µM | [4] 20.7 µM | [5] 12.1 µM | [6] 29.7 µM | [7] 21.4 µM | [8] 5.69 µM | [9] 14.6 µM | [10] 11.2 µM | [11] 31 µM | [12] 2.83 µM | [13] 12.4 µM | [14] 4.06 µM | [15] 11.1 µM | [16] 11.3 µM | [17] 21.3 µM | [18] 21.4 µM

C=C(C)COc1ccc2c(c1)CCC1C2CCC2(C)C(=O)/C(=N/O)CC12 (centres undefined)
active: [14] 0.966 µM
inactive: [19] 8.11 µM | [1] 2.86 µM | [2] 13.8 µM | [3] 1.21 µM | [4] 4.13 µM | [5] 2.39 µM | [6] 12.8 µM | [7] 1.78 µM | [8] 3.12 µM | [9] 1.94 µM | [10] 1.35 µM | [11] 4.37 µM | [12] 3.08 µM | [13] 1.9 µM | [15] 1.31 µM | [16] 3.9 µM | [17] 4.14 µM | [18] 14.9 µM
